# Laboratory results: article PMC6056748, “Amsacrine Derivatives Selectively Inhibit Mycobacterial Topoisomerase I (TopA), Impair M. smegmatis Growth and Disturb Chromosome Replication” (Frontiers in Microbiology, 2018)
# Where two headings read alike, the source gives them in different places.
# How the values were obtained:
# MsTopA [1] = biological target: T1, MsTopA (Mycolicibacterium smegmatis, UniProt A0R5D9); test: Topoisomerase I activity assay (relaxation of negatively supercoiled pUC19); format: biochemical, M. smegmatis; settings: 60 nM MsTopA; for inhibition at 60 µM: 60 μM inhibitor; for MsTopA activity inhibition over concentration range: concentrations from 15 to 60 μM; for MsTopA inhibition in the screen of amsacrine derivatives (Table S2): 60 μM compound, data not shown
# Experimental: The amsacrine derivatives were stored at 4°C as 20 mM stock solutions in DMSO. Shortly before the activity assays, the inhibitors were diluted in DMSO to reach working concentration (0.15–0.6 mM). An 18 μl mixture containing 120 ng MsTopA, 25 mM NaH2PO4 at pH 8.0, 150 mM NaCl, 5% glycerol, 10 mM MgCl2 and a tested inhibitor in a final concentration of 15, 30, or 60 μM was incubated for 30 min on ice. To start the reaction, 2.0 μl (140 ng) of negatively supercoiled pUC19 plasmid were added to the mixture and incubated for 15 min at 37°C in the presence of 60 nM MsTopA. The reaction was stopped by adding 1.5 μl of 0.5 M EDTA. DNA was resolved in 0.8% agarose in TAE buffer at 140 V for 3 h at room temperature. Topoisomers distribution was visualized by ethidium bromide staining for 30 min at room temperature. Subsequently, the fluorescence signal of supercoiled plasmid and the relaxed topoisomers was calculated using ImageJ Fiji suite (http://fiji.sc/Fiji). To determine the efficiency of MsTopA inhibition, we calculated the fraction of total plasmid that remained supercoiled after the reaction.
# S. venezuelae = test: Growth analysis (Bioscreen C, log-phase growth rate); format: cell-based; settings: for IC50: growth rate in log-phase, Figure 2B
# [2] = system: M. smegmatis strain (JH01), DnaN-EGFP; test: TLMM: number of DnaN-EGFP foci per cell
# Experimental: For time-lapse microscopy, M. smegmatis strains were cultured to the log-phase of growth, then diluted with 7H9 medium supplemented with 10% OADC and 0.05% Tween-80 and loaded into the flow chamber of B04A plates with a CellASIC ONIX flow control system (Merck-Millipore). During the experiment, the cells were continuously supplied with fresh medium supplemented with the inhibitor (at 30–240 μM concentrations) or 1% DMSO in the control experiment. To visualize dead cells, after 15 h of inhibitor treatment cells were washed with propidium iodide at concentration 10 μg/ml for 1 h. The images were taken in 10 min intervals using a Delta Vision Elite Imager equipped with DV Elite CoolSnap HQ2 Camera and SoftWorx software and were subsequently analyzed using ImageJ Fiji suite (http://fiji.sc/Fiji) and R suite (http://www.R-project.org). The analysis of cell cycle and evaluation of particular phases of growth started from the moment of appearance of a single DnaN-EGFP foci (initiation of DNA replication).
# MsTopA [3] = biological target: T1, MsTopA; test: Surface plasmon resonance of MsTopA binding to immobilized DNA; design: species or system M. smegmatis; settings: for MsTopA affinity for DNA (SPR): 15–90 μM compound, MsTopA 60 nM; for ICB, inhibitory concentration that completely blocks MsTopA binding: 241 bp DNA on chip, inhibitor preincubated with MsTopA
# Experimental: Surface plasmon resonance (SPR)
# SPR analyses were performed on a BIAcore T200. For the SPR analyses, the biotinylated fragment (241-bp long) was amplified using parA4200 and parS4440_rv_biot oligonucleotides from S. coelicolor chromosome. DNA immobilization on the surface of the sensor chip SA and protein binding analyses were performed according to the procedure described by Strzalka et al.[9]. Prior to binding to the DNA-coated chip, MsTopA (50 nM) in 25 mM NaH2PO4 pH 8.0, 150 mM NaCl and 5% glycerol (binding buffer) was incubated on ice for 40 minutes with amsacrine or its XC derivatives (in 15 - 90 µM concentrations or 1% DMSO for the control experiment). For each compound, the ICB value was estimated as the inhibitor concentration that completely abolished the binding of MsTopA to the DNA-coated chip.
# [4] = system: M. smegmatis strain (JH01), DnaN-EGFP; test: TLMM: replisome lifetime and cell cycle phases; settings: for Phase D+B / Phase C / Complete cell cycle: 120 µM, mean (SD), n = 50; for Phase D+B: 1% DMSO 33 (15); for Phase C: 1% DMSO 129 (15); for Complete cell cycle: 1% DMSO 162 (18); for Average lifetime of DnaN-EGFP complex (replisome lifetime): 120 μM, control 1% DMSO 130 min
# Experimental: For time-lapse microscopy, M. smegmatis strains were cultured to the log-phase of growth, then diluted with 7H9 medium supplemented with 10% OADC and 0.05% Tween-80 and loaded into the flow chamber of B04A plates with a CellASIC ONIX flow control system (Merck-Millipore). During the experiment, the cells were continuously supplied with fresh medium supplemented with the inhibitor (at 30–240 μM concentrations) or 1% DMSO in the control experiment. […] The images were taken in 10 min intervals using a Delta Vision Elite Imager equipped with DV Elite CoolSnap HQ2 Camera and SoftWorx software and were subsequently analyzed using ImageJ Fiji suite (http://fiji.sc/Fiji) and R suite (http://www.R-project.org). The analysis of cell cycle and evaluation of particular phases of growth started from the moment of appearance of a single DnaN-EGFP foci (initiation of DNA replication).
# The calculation of an average time of particular phases of M. smegmatis cell cycle.
# Phase C corresponds to chromosome replication. It starts with the appearance of a single DnaN-
# EGFP focus (time 0) (green dot), which subsequently splits into two foci.
# the termination of DNA replication and cell division and the time after cell division prior to initiation of
# replication. The time of complete cell cycle is the sum of C and D+B phases.The data in the table show
# the average time of each phase as well as the time of complete M. smegmatis cell cycle in TLMM
# experiment (see the material and methods) in control experiment (DMSO) or during treatment with
# amsacrine/XC-4 inhibitor.
# E. coli = test: Growth analysis (Bioscreen C, log-phase growth rate); format: cell-based; settings: Escherichia coli; for IC50: growth rate in log-phase, Figure 2B
# [5] = system: M. smegmatis (JH01 strain); test: Propidium iodide staining of dead cells (TLMM); settings: 120 μM, after 15 hours of exposure
# Experimental: For time-lapse microscopy, M. smegmatis strains were cultured to the log-phase of growth, then diluted with 7H9 medium supplemented with 10% OADC and 0.05% Tween-80 and loaded into the flow chamber of B04A plates with a CellASIC ONIX flow control system (Merck-Millipore). During the experiment, the cells were continuously supplied with fresh medium supplemented with the inhibitor (at 30–240 μM concentrations) or 1% DMSO in the control experiment. To visualize dead cells, after 15 h of inhibitor treatment cells were washed with propidium iodide at concentration 10 μg/ml for 1 h. The images were taken in 10 min intervals using a Delta Vision Elite Imager equipped with DV Elite CoolSnap HQ2 Camera and SoftWorx software and were subsequently analyzed using ImageJ Fiji suite (http://fiji.sc/Fiji) and R suite (http://www.R-project.org).
# M. smegmatis (JH01 strain) growth in the presence of 120 µM amsacrine or 1% DMSO was
# visualized using TLMM microscopy (the procedure descirbed in the materials and methods).
# After 15 hours of exposure to antibiotic cells were washed with medium suplemented with 10
# µg/ml propidium iodide for 1 hour to detect dead cells (red) in the population.
# M. smegmatis mc2155 = test: Growth analysis (Bioscreen C, log-phase growth rate); format: cell-based; settings: for inhibition at 30 µM: log-phase growth rate vs 1% DMSO; for IC50 lower than amsacrine: M. smegmatis growth
# [6] = system: M. smegmatis MSZ2 strain producing M. tuberculosis MtTopA; format: cell-based
# MsTopA [7] = biological target: T1, MsTopA; test: MsTopA inhibition in PI, NI and PN order-of-addition assays; format: biochemical, M. smegmatis; settings: 60 μM inhibitor, 60 nM MsTopA
# Experimental: In the inhibition assays used to test the effect of inhibitor binding to the enzyme, DNA or the enzyme-DNA complex (PI—protein-inhibitor binding, NI—nucleic acid-inhibitor binding, or PNI—protein-nucleic acid binding) the complete reaction mixtures (as above) without magnesium ions and one of the reaction components (substrate, enzyme or inhibitor in the PI, NI, and PNI assays, respectively) were preincubated for 30 min on ice. Subsequently, the reactions were started by adding magnesium chloride and the missing component: negatively supercoiled pUC19 plasmid, MsTopA protein or the particular inhibitors. The reactions were performed for 5 min at 37°C and stopped by adding 1.5 μl of 0.5 M EDTA. Topoisomers were resolved and analyzed according to the procedure described above.
# [8] = Solubility under microfluidic conditions; format: physicochemical
# [9] = Mycolicibacterium smegmatis, MC2155
# [10] = Mycolicibacterium smegmatis, MC2155, M. smegmatis, Figure S4, read-out: IC50 (growth inhibition fitted to a sigmoidal model)
# [11] = Mycolicibacterium smegmatis, MC2155, growth rate in log-phase, Figure 2B, read-out: IC50 M. smegmatis
# T1 sequence (A0R5D9 whole entry): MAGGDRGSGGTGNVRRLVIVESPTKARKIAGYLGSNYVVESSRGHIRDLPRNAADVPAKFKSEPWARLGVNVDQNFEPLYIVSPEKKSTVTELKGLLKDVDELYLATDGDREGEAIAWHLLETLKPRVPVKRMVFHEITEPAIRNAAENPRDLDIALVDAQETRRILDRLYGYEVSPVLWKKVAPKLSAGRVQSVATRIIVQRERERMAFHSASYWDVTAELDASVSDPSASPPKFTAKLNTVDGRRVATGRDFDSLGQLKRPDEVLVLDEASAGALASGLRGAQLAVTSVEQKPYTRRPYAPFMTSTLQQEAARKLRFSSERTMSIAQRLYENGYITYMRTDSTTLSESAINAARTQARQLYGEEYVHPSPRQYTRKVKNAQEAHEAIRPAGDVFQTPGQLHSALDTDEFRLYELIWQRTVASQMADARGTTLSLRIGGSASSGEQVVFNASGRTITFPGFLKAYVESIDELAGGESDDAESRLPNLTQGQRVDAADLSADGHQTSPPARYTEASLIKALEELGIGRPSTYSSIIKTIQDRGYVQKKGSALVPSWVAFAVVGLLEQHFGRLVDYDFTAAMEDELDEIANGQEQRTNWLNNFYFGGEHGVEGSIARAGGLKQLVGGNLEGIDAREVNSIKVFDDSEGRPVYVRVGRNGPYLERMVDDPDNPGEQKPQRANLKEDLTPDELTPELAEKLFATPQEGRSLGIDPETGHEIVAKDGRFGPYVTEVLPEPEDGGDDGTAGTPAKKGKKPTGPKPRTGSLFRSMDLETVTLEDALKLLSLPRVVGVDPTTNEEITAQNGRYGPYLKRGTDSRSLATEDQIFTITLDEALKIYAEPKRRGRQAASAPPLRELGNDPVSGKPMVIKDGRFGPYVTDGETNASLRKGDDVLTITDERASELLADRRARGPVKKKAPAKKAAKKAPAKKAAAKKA
SMILES,inhibition at 60 µM (MsTopA [1]) [%],MsTopA activity inhibition over concentration range (MsTopA [1]),IC50 (S. venezuelae; Streptomyces venezuelae) [µM],Percentage of cells with more than two DnaN-EGFP foci ([2]; 120 μM),Percentage of cells with no DnaN-EGFP focus ([2]; 120 μM),MsTopA affinity for DNA (SPR) (MsTopA [3]),"ICB, inhibitory concentration that completely blocks MsTopA binding (MsTopA [3]) [µM]",Phase D+B [4],Phase C [4],Average lifetime of DnaN-EGFP complex (replisome lifetime) [4],IC50 (E. coli) [µM],inhibition at 30 µM (M. smegmatis mc2155; [9]) [%],IC50 (M. smegmatis mc2155; [10]) [µM],IC50 (M. smegmatis mc2155; [11]) [µM],Difference in growth inhibition between wild-type M. smegmatis and MSZ2 strain producing MtTopA [6],MsTopA inhibition in the screen of amsacrine derivatives (Table S2) (MsTopA [1]),S. venezuelae growth inhibition (S. venezuelae; 60 μM),Inhibitory effect when added to the preformed MsTopA-DNA complex (PN assay) (MsTopA [7]),IC50 lower than amsacrine (M. smegmatis mc2155),other results
"COc1cc(NS(C)(=O)=O)ccc1Nc1c2ccccc2nc2ccccc12 [Amsacrine, amsacrine]",64,strongly inhibit MsTopA activity at concentrations >30 μM,47,27.6%,26.1%,decrease in enzyme affinity for DNA,90,40 (21) min,154 (32) min,slightly increased,> 90,20 to 30,40,41,did not observe any differences in growth inhibition,–,–,–,–,"inhibition at 60 µM (S. venezuelae; Streptomyces venezuelae, 60 μM): ≤ 80%; Percentage of cells with more than two DnaN-EGFP foci ([2]; 240 μM): 6.2%; Percentage of cells with no DnaN-EGFP focus ([2]; 240 μM): 48%; Complete cell cycle [4]: 194 (36) min; Complete cell cycle ([4]; listed as amsacrine): only slightly; inhibition at 60 µM (E. coli; read-out: E. coli growth inhibition): 32%; Fraction of dead cells (propidium iodide) [5]: 12%; inhibition at 60 µM (M. smegmatis mc2155; Mycolicibacterium smegmatis, MC2155, 60 μM): ≤ 80%"
COc1cc(NS(=O)(=O)c2ccccc2)ccc1Nc1c2ccccc2nc2ccccc12 [XC-1],73,strongly inhibit MsTopA activity at concentrations >30 μM,> 90,13.4–19.1%,13.8–18.3%,decrease in enzyme affinity for DNA,60,–,–,slightly increased,> 90,20 to 30,55.4,58,did not observe any differences in growth inhibition,efficiently inhibited MsTopA activity,much lesser extent than amsacrine,notably weaker,–,–
COc1cc(NS(=O)(=O)c2ccc(Cl)cc2)ccc1Nc1c2ccccc2nc2ccccc12 [XC-2],63,strongly inhibit MsTopA activity at concentrations >30 μM,85,13.4–19.1%,13.8–18.3%,decrease in enzyme affinity for DNA,30,–,–,slightly increased,> 90,20 to 30,56,–,did not observe any differences in growth inhibition,efficiently inhibited MsTopA activity,much lesser extent than amsacrine,notably weaker,–,–
COc1cc(NS(=O)(=O)c2ccc([N+](=O)[O-])cc2)ccc1Nc1c2ccccc2nc2ccccc12 [XC-3],73,strongly inhibit MsTopA activity at concentrations >30 μM,> 90,13.4–19.1%,13.8–18.3%,decrease in enzyme affinity for DNA,15,–,–,slightly increased,78,55 to 60,26.8,26,did not observe any differences in growth inhibition,efficiently inhibited MsTopA activity,much lesser extent than amsacrine,–,30–40%,Solubility under microfluidic conditions [8]: poor solubility
COc1cc(NS(=O)(=O)c2ccc(C)cc2)ccc1Nc1c2ccccc2nc2ccccc12 [XC-4],80,strongly inhibit MsTopA activity at concentrations >30 μM,> 90,4.6%,–,decrease in enzyme affinity for DNA,15,70 (38) min,240 (51) min,220 min,86,55 to 60,27,28,did not observe any differences in growth inhibition,efficiently inhibited MsTopA activity,much lesser extent than amsacrine,–,30–40%,"Percentage of cells with more than two DnaN-EGFP foci ([2]; 30 μM): 19.3%; DnaN-EGFP lifetime ([4]; 30 μM, compared with 120 μM XC-4): shortened the DnaN-EGFP lifetime"
"COc1cc([C@@H]2c3cc4c(cc3[C@@H](O[C@@H]3O[C@@H]5CO[C@@H](C)O[C@H]5[C@H](O)[C@H]3O)[C@H]3COC(=O)[C@H]23)OCO4)cc(OC)c1O [etoposide, reference compound]",–,–,–,–,–,–,–,–,–,–,–,–,–,–,–,–,–,–,–,MsTopA inhibition (MsTopA [1]; etoposide 0.1 - 2.0 mM): did not observe MsTopA inhibition
